Measurements from US20230116137A1, “METHODS FOR TREATING COLORECTAL AND METASTATIC COLORECTAL CANCERS” (Isofol Medical AB, priority 2017, published 2023).
Where a name gives a salt, the structure may show the parent alone. Read-outs that look alike come from different tables or passages of the source.

Experiments:
[1] = system: colorectal tumors; conditions: cited from earlier work
[2] = system: solid tumours; conditions: cited from earlier work
[3] = system: solid tumors of stage IV metastatic colorectal cancer; assay: Treatment of patients diagnosed with stage IV metastatic colorectal cancer with bevacizumab, oxaliplatin, 5-FU and 6R-MTHF; CT measurement of lesions, RECIST 1.1; type: in vivo, human
Text: The ORR may be calculated as follows: ORR=sum of partial responses plus complete responses as per RECIST 1.1 (a set of published rules that define when tumours in cancer patients progress during treatments)([Eisenhauer E A, Therasse P, Bogaerts J, Schwartz L H, Sargent D, Ford R, et al. New response evaluation criteria in solid tumours: revised RECIST guideline (version 1.1). Eur J Cancer. 2009 January; 45(2):228-47; incorporated by reference in its entirety]. As defined herein, a “complete response (CR)” means the disappearance of all target lesions. Any pathological lymph nodes (whether target or non-target) must have reduction in short axis to <10 mm. As used herein, a “partial response (PR)” means at least a 30% decrease in the sum of diameters of target lesions, taking as reference the baseline sum diameters.As used herein, “progressive disease (PD)” means at least a 20% increase in the sum of diameters of target lesions, taking as reference the smallest sum on study (this includes the baseline sum if that is the smallest on study). […] The appearance of one or more new lesions is also considered progression.
(§1) Bevacizumab was administered at a dose of 5 mg/kg by intravenous infusion over 30 to 90 minutes. Following administration of bevacizumab, oxaliplatin was administered at a dose of 85 mg/m^2 by intravenous infusion between 15 and 120 minutes. Following oxaliplatin administration, 5-fluorouracil (5-FU) at a dose of 400 mg/m^2 was administered by intravenous bolus within 5 minutes. Thirty minutes after administration of the 5-FU intravenous bolus, 6R-MTHF at a dose of 60 mg/m^2 was administered by intravenous bolus (completed within 3 minutes). About 5 minutes after completion of the 6R-MTHF intravenous bolus administration, an intravenous infusion of 5-FU at a dose of 2,400 mg/m^2 was initiated. The infusion was paused to administer an intravenous bolus of 6R-MTHF at a dose of 60 mg/m^2 (completed within 3 minutes). The 5-FU infusion was maintained for 46 hours.
as §1, §1

[4] = system: colorectal cancer; conditions: Phase IIb study; cited from earlier work
[5] = system: metastatic colorectal cancer; conditions: Phase II trial, previously untreated metastatic colorectal cancer; cited from earlier work
[6] = system: pancreas cancer; conditions: CoFactor combined with 5-FU, phase I/II; cited from earlier work

O=c1[nH]cc(F)c(=O)[nH]1 [5-FU, 5-fluorouracil]
response rate ([1]; 5-FU given as a monotherapy): around 10% | overall response rate ([2]; 5-FU alone): 10-15%

Nc1nc2c(c(=O)[nH]1)N1CN(c3ccc(C(=O)N[C@@H](CCC(=O)O)C(=O)O)cc3)C[C@H]1CN2 [6R-MTHF, [6R]-5,10-methylene tetrahydrofolate]
tumor response ([3]; Example 2 patient, second-line, 8-week treatment period): stable disease | size of lesions (CT) ([3]; Example 2 patient, second-line, baseline 25, 13 and 12 mm (abdomen), after 8 weeks (CT at 10 weeks plus 2 days)): unchanged in size | size of lesion ([3]; Example 3 patient, second-line, 9 mm lesion, between 16 and 24 weeks): unchanged in size | tumor response ([3]; Example 3 patient, second-line, after 8 weeks): partial response and no progression | tumor response ([3]; Example 3 patient, second-line, after 16 weeks): partial response and no progression | fate of 10 mm lesion ([3]; Example 3 patient, second-line, baseline 10 and 16 mm (liver and lung), 8 weeks): disappearance | size of lesion (CT-verified) ([3]; Example 3 patient, second-line, baseline 16 mm lesion, 8 weeks): 13 mm | tumor response ([3]; Example 3 patient, second-line, between 16 and 24 weeks): no progression | size of lesion (CT-verified) ([3]; Example 3 patient, second-line, lesion 16 mm at baseline, 13 mm at 8 weeks, after 16 weeks): 9 mm | tumor response ([3]; Example 4 patient, second-line, 8-week treatment period): stable disease | size of lesion ([3]; Example 4 patient, second-line, baseline 35 mm (liver), after 8 weeks): unchanged in size | size of lesion ([3]; Example 4 patient, second-line, baseline 35 mm (liver), after 16 and 24 weeks): unchanged in size | tumor response ([3]; Example 4 patient, second-line, through 24 weeks): no progression | size of lesion ([3]; Example 5 patient, second-line, baseline 80 mm (liver), after 8 weeks): 96 mm | tumor response ([3]; Example 6 patient, second-line, 8-week treatment period): stable disease | size of lesion ([3]; Example 6 patient, second-line, 41 mm lesion (baseline 44 mm), after 16 weeks): unchanged in size | size of lesion ([3]; Example 6 patient, second-line, baseline 44 mm (liver), after 8 weeks): 41 mm | tumor response ([3]; Example 6 patient, second-line, through 16 weeks): stable disease and no progression | tumor response ([3]; Example 7 patient, second-line, 8-week treatment period): stable disease and no progression | size of lesion ([3]; Example 7 patient, second-line, baseline 22 mm (liver), after 8 weeks): unchanged in size | size of lesion ([3]; Example 7 patient, second-line, baseline 22 mm (liver), after additional four cycles (8 weeks)): unchanged in size | tumor response ([3]; Example 7 patient, second-line, through 16 weeks): no progression | tumor response ([3]; Example 8 patient, first-line, 8-week treatment period): stable disease and no progression | size of lesion ([3]; Example 8 patient, first-line, baseline 72 mm (liver), after 8 weeks): 59 mm | size of lesion ([3]; Example 8 patient, first-line, baseline 72 mm, 59 mm at 8 weeks, after 16 weeks): 53 mm | tumor response ([3]; Example 8 patient, first-line, through 16 weeks): stable disease and no progression | tumor response ([3]; Example 9 patient, second-line, 8-week treatment period): stable disease and no progression | tumor response ([3]; Example 9 patient, second-line, 16-week treatment period): stable disease and no progression | size of lesion ([3]; Example 9 patient, second-line, baseline 57 mm (abdomen), after 8 weeks): 56 mm | size of lesion ([3]; Example 9 patient, second-line, baseline 57 mm, 56 mm at 8 weeks, after 16 weeks): 57 mm | tumor response ([3]; Example 10 patient, second-line, 8-week treatment period): stable disease and no progression | tumor response ([3]; Example 10 patient, second-line, 16-week treatment period): stable disease and no progression | size of lesion ([3]; Example 10 patient, second-line, 188 mm lesion (baseline 250 mm), after 16 weeks): unchanged in size | size of lesion ([3]; Example 10 patient, second-line, baseline 250 mm (abdomen), after 8 weeks): 188 mm | size of lesion ([3]; Example 11 patient, first-line, baseline 77 mm (liver), after 8 weeks): 89 mm | tumor response ([3]; Example 12 patient, second-line, 8-week treatment period): stable disease | size of lesion ([3]; Example 12 patient, second-line, baseline 26 mm (lung), after 8 weeks): 30 mm

Nc1nc(=O)c2c([nH]1)NCC1CN(c3ccc(C(=O)N[C@@H](CCC(=O)[O-])C(=O)[O-])cc3)CN21.[Ca+2] (stereo partly drawn) [CoFactor, (dl)-5,10,-methylenepteroyl-monoglutamate calcium salt]
efficacy and safety versus leucovorin arm [4]: no significant differences | overall response rate [5]: 35% | clinical benefit, defined as stable disease or tumor response, proportion of patients [6]: 40%

Nc1nc2c(c(=O)[nH]1)N(C=O)C(CNc1ccc(C(=O)N[C@@H](CCC(=O)O)C(=O)O)cc1)CN2 (some centres unmarked) [LV, calcium salt of 5-formyl-5,6,7,8-tetrahydrofolic acid]
response rate ([1]; LV added to 5-FU): 21% | overall response rate ([2]; LV added to 5-FU): over 20%
